Source: patent EP3454861B1, “BENZOXAZINE OR QUINAZOLINE DERIVATIVES FOR USE IN THE TREATMENT OF ALZHEIMER'S DISEASE” (Biocodex, priority 2016, dated 2017)

Test system: peroxydation lipidique
Test: Lipid peroxidation measurement in mouse hippocampus (colorimetric, CHP equivalents)
Type: in vivo, souris
Details: Etifoxine 12,5-50 mg/kg per day IP, Aβ25-35 ICV, day 10
Description: Le 1^er jour : une version « mélangée » (scrambled) du peptide amyloïde β25-35 (Sc.Aβ, témoin négatif) ou le peptide amyloïde β25-35 (Aβ25-35) est injecté par voie intra-cérébroventriculaire (ICV) (le peptide Aβ25-35 provoque l'intoxication cellulaire). Entre le 1^er jour et le 10^ème jour, les traitements sont administrés une fois par jour par voie intrapéritonéale (IP).
A la fin de la session de rétention d'évitement passif, le 10^ème jour, les animaux sont sacrifiés par décapitation. L'hippocampe et le cortex frontal sont disséqués et congelés dans l'azote liquide. L'hippocampe est utilisé pour mesurer le taux de peroxydation lipidique à l'aide d'une méthode colorimétrique et pour évaluer les taux de 4 marqueurs biochimiques par des tests ELISA. Le cortex est conservé à -80°C en attente d'analyses supplémentaires. Les plasmas sont également conservés en attente d'analyses supplémentaires. Les échantillons biologiques sont jetés après 3 mois.
Les souris de chaque groupe sont sacrifiées par décapitation et les deux hippocampes sont prélevés, pesés et conservés dans de l'azote liquide jusqu'à l'analyse. […] Après avoir lu l'absorbance à 580 nm (A5801), 10 µl d'hyperoxyde de cumène (CHP) (1 mM) sont ajoutés à l'échantillon et il est incubé pendant 30 minutes à température ambiante pour déterminer le degré d'oxydation maximal. L'absorbance est mesurée à 580 nm (A5802). […]

CCNC1=Nc2ccc(Cl)cc2C(C)(c2ccccc2)O1 (stereo not shown) [Etifoxine, chlorhydratede 6-chloro-2-éthylamino-4-méthyl-4-phényl-4H-[3,1]benzoxazine]
peroxydation lipidique dans l'hippocampe (stress oxydatif induit par Aβ25-35): diminuer de manière dose-sensible le stress oxydatif
